Reference: patent publication US12084419B2, “Cell metabolism modulating compounds and uses thereof” (CRESCENTA BIOSCIENCES, priority 2020, dated 2024)

Target: T1, His6 tagged human recombinant FABP4 (Homo sapiens, UniProt P15090)
T1 construct: purchased Cayman Chemicals 10009549
Experiment: FABP4 TR-FRET assay: displacement of BODIPY FL C12 fatty acid
Settings: triplicates, inhibition of BODIPY FL C12 binding
Excerpt: Activity of compounds with FABP4 was profiled using a Terbium (Tb) based time resolved fluorescence energy transfer (TR-FRET) assay. The assay measures the compound mediated displacement of the fluorescent fatty acid BODIPY FL C12 (Thermo Fisher; catalog number D3822) from His6 tagged human recombinant FABP4 (His6-FABP4; Cayman Chemicals, catalog number 10009549) via recording the energy transfer from TB donor molecule on anti-His6-tag antibody to acceptor BODIPY moiety. Briefly, compounds were prepared at a concentration of 0.362 mM and 0.0362 mM, and BODIPY FL C12 was prepared at 4.2 μM, in DMSO. 1.2 μL of each compound or DMSO (vehicle control) and 1.2 μL of BODIPY FL C12 were added into the wells of a 384-well black polypropylene plate. His6-FABP4 and Tb anti-His6 antibody were prepared in the assay buffer (25 mM Tris/HCl, pH 7.4, 0.4 mg/ml y-globulins, 0.010% NP-40, 1 mM DTT) at a concentration of 83 nM and 49.6 nM, respectively. The protein and antibody solutions were then mixed at a ratio of 34:7 (v/v) and incubated on ice for 30 minutes. The assay was initiated by adding 41 μL of the resulting protein/antibody solution into the wells containing the compounds and BODIPY FL C12. The plate was centrifuged and incubated at room temperature for 10 min. The TR-FRET signals were recorded using an EnVision Multilabel plate reader (PerkinElmer; TB excitation 320 nm, BODIPY FL C12 emission 520 nm; TB emission 615 nm). Relative fluorescence ratio (520 nm*10,000/615 nm) were used to calculate the compound mediated inhibition of BODIPY C12 FL fatty acid binding to FABP4. […] Glucose consumption and FABP4 inhibition is shown below in Table 3 below.

T1 sequence (P15090 whole entry): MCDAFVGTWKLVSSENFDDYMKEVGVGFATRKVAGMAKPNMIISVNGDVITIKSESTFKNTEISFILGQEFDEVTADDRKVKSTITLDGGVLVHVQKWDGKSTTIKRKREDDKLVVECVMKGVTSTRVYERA

CCCCC1CCCc2c(n(Cc3cccc(C#N)c3)c3c(C(=O)NCCO)cccc23)C1 (stereo not drawn) [7-butyl-5-[(3-cyanophenyl)methyl]-N-(2-hydroxyethyl)-5H,6H,7H,8H,9H,10H-cyclohepta[b]indole-4-carboxamide]
inhibition at 1 µM (1 μM compound): 6.65% | inhibition at 10 µM (10 μM compound): 42.7%

NC(=O)c1cccc(Cn2c3c(c4cccc(C(=O)O)c42)CCCC(CCc2ccccc2)C3)c1 (stereo not drawn) [5-[(3-carbamoylphenyl)methyl]-7-(2-phenylethyl)-5H,6H,7H,8H,9H,10H-cyclohepta[b]indole-4-carboxylic acid]
inhibition at 1 µM (1 μM compound): 99.1% | inhibition at 10 µM (10 μM compound): 98%

CCCCCCC1CCCc2c(n(Cc3ccc(C(N)=O)cc3)c3c(C(=O)O)cccc23)C1 (stereo not drawn) [5-[(4-carbamoylphenyl)methyl]-7-hexyl-5H,6H,7H,8H,9H,10H-cyclohepta[b]indole-4-carboxylic acid]
inhibition at 1 µM (1 μM compound): 77.7% | inhibition at 10 µM (10 μM compound): 83.8%

CCCCCCC1CCCc2c(n(Cc3ccc(C#N)s3)c3c(C(=O)O)cccc23)C1 (stereo not drawn) [5-[(5-cyanothiophen-2-yl)methyl]-7-hexyl-5H,6H,7H,8H,9H,10H-cyclohepta[b]indole-4-carboxylic acid]
FABP4 inhibition (%) at 1 μM Mean (1 μM compound): 83.31% | inhibition at 1 µM (1 μM compound): 86.6% | FABP4 inhibition (%) at 10 μM Mean (10 μM compound): 89.42% | inhibition at 10 µM (10 μM compound): 87.3%

CCCC1CCCCc2c1c1cccc(C(=O)O)c1n2Cc1cccc(C#N)c1 (stereo not drawn) [5-[(3-cyanophenyl)methyl]-10-propyl-5H,6H,7H,8H,9H,10H-cyclohepta[b]indole-4-carboxylic acid]
inhibition at 1 µM (1 μM compound): 73.3% | inhibition at 10 µM (10 μM compound): 97.5%

CCCCC1CCc2c(c3cccc(C(=O)O)c3n2Cc2cccc(C(N)=O)c2)C1 (stereo not drawn) [3-butyl-9-[(3-carbamoylphenyl)methyl]-2,3,4,9-tetrahydro-1H-carbazole-8-carboxylic acid]
inhibition at 1 µM (1 μM compound): 92.4% | inhibition at 10 µM (10 μM compound): 97.2%

CCC1CCc2c(n(Cc3cccc(C(=O)O)c3)c3c(C(=O)O)cccc23)C1 (stereo not drawn) [9-[(3-carboxyphenyl)methyl]-2-ethyl-2,3,4,9-tetrahydro-1H-carbazole-8-carboxylic acid]
inhibition at 1 µM (1 μM compound): 23.5% | inhibition at 10 µM (10 μM compound): 69.2%

CCCCC1CCCc2c(n(Cc3ccccc3F)c3c(C(=O)O)cccc23)C1 (stereo not drawn) [7-butyl-5-[(2-fluorophenyl)methyl]-5H,6H,7H,8H,9H,10H-cyclohepta[b]indole-4-carboxylic acid]
inhibition at 1 µM (1 μM compound): 92.1% | inhibition at 10 µM (10 μM compound): 88.1%

CCC1CCCc2c1c1cccc(C(=O)O)c1n2Cc1cccc(C(N)=O)c1 (stereo not drawn) [9-[(3-carbamoylphenyl)methyl]-4-ethyl-2,3,4,9-tetrahydro-1H-carbazole-8-carboxylic acid]
inhibition at 1 µM (1 μM compound): 87% | inhibition at 10 µM (10 μM compound): 102%

CCCCCC1CCCCc2c1c1cccc(C(=O)O)c1n2Cc1cccc(C(N)=O)c1 (stereo not drawn) [5-[(3-carbamoylphenyl)methyl]-10-pentyl-5H,6H,7H,8H,9H,10H-cyclohepta[b]indole-4-carboxylic acid]
inhibition at 1 µM (1 μM compound): 81.1% | inhibition at 10 µM (10 μM compound): 96.1%

CCCCCCC1CCc2c(n(Cc3ccccc3C(N)=O)c3c(C(=O)O)cccc23)C1 (stereo not drawn) [9-[(2-carbamoylphenyl)methyl]-2-hexyl-2,3,4,9-tetrahydro-1H-carbazole-8-carboxylic acid]
inhibition at 1 µM (1 μM compound): 31.1% | inhibition at 10 µM (10 μM compound): 80.7%

CCCCCCC1CCCc2c(n(Cc3cccc(C(N)=O)n3)c3c(C(=O)O)cccc23)C1 (stereo not drawn) [5-[(6-carbamoylpyridin-2-yl)methyl]-7-hexyl-5H,6H,7H,8H,9H,10H-cyclohepta[b]indole-4-carboxylic acid]
inhibition at 1 µM (1 μM compound): 94% | inhibition at 10 µM (10 μM compound): 95.2%

CCCCCCC1CCCc2c(n(C(=O)c3cccc(C#N)c3)c3c(C(=O)O)cccc23)C1 (stereo not drawn) [5-(3-cyanobenzoyl)-7-hexyl-5H,6H,7H,8H,9H,10H-cyclohepta[b]indole-4-carboxylic acid]
inhibition at 1 µM (1 μM compound): 87.1% | inhibition at 10 µM (10 μM compound): 88.5%

CCCCC1Cc2c(n(Cc3cccc(C(N)=O)c3)c3c(C(=O)O)cccc23)C1 (stereo not drawn) [2-butyl-4-[(3-carbamoylphenyl)methyl]-1H,2H,3H,4H-cyclopenta[b]indole-5-carboxylic acid]
inhibition at 1 µM (1 μM compound): 87.2% | inhibition at 10 µM (10 μM compound): 95.2%

CCCCC1CCCc2c(n(Cc3cccc(O)c3)c3c(C(=O)O)cccc23)C1 (stereo not drawn) [7-butyl-5-[(3-hydroxyphenyl)methyl]-5H,6H,7H,8H,9H,10H-cyclohepta[b]indole-4-carboxylic acid]
inhibition at 1 µM (1 μM compound): 98.7% | inhibition at 10 µM (10 μM compound): 96.1%

CCCCCOC1CCCc2c1n(Cc1cccc(C#N)c1)c1c(C(=O)O)cccc21 (stereo not drawn) [9-[(3-cyanophenyl)methyl]-1-(pentyloxy)-2,3,4,9-tetrahydro-1H-carbazole-8-carboxylic acid]
inhibition at 1 µM (1 μM compound): 7.56% | inhibition at 10 µM (10 μM compound): 63.3%

CCCCCCC1CCc2c(n(Cc3ccc(C#N)cc3)c3c(C(=O)O)cccc23)C1 (stereo not drawn) [9-[(4-cyanophenyl)methyl]-2-hexyl-2,3,4,9-tetrahydro-1H-carbazole-8-carboxylic acid]
inhibition at 1 µM (1 μM compound): 39.7% | inhibition at 10 µM (10 μM compound): 78.9%

CCCCCCC1CCc2c(n(Cc3ccc(C(N)=O)cc3)c3c(C(=O)O)cccc23)C1 (stereo not drawn) [9-[(4-carbamoylphenyl)methyl]-2-hexyl-2,3,4,9-tetrahydro-1H-carbazole-8-carboxylic acid]
inhibition at 1 µM (1 μM compound): 87.3% | inhibition at 10 µM (10 μM compound): 89.3%

CCCCCCC1CCCc2c(n(Cc3ccnc(OC)c3)c3c(C(=O)O)cccc23)C1 (stereo not drawn) [7-hexyl-5-[(2-methoxypyridin-4-yl)methyl]-5H,6H,7H,8H,9H,10H-cyclohepta[b]indole-4-carboxylic acid]
inhibition at 1 µM (1 μM compound): 78.1% | inhibition at 10 µM (10 μM compound): 82.8%

CCCCCCC1CCCc2c(n(Cc3ccc4ncoc4c3)c3c(C(=O)O)cccc23)C1 (stereo not drawn) [5-[(1,3-benzoxazol-6-yl)methyl]-7-hexyl-5H,6H,7H,8H,9H,10H-cyclohepta[b]indole-4-carboxylic acid]
inhibition at 1 µM (1 μM compound): 101% | inhibition at 10 µM (10 μM compound): 94.9%

CCCCC1CCc2c(c3cccc(C(=O)O)c3n2Cc2cccc(C#N)c2)C1 (stereo not drawn) [3-butyl-9-[(3-cyanophenyl)methyl]-2,3,4,9-tetrahydro-1H-carbazole-8-carboxylic acid]
inhibition at 1 µM (1 μM compound): 35.8% | inhibition at 10 µM (10 μM compound): 81.1%

CCCCCC1CCCc2c(n(Cc3cccc(C(N)=O)c3)c3c(C(=O)O)cccc23)C1 (stereo not drawn) [5-[(3-carbamoylphenyl)methyl]-7-pentyl-5H,6H,7H,8H,9H,10H-cyclohepta[b]indole-4-carboxylic acid]
inhibition at 1 µM (1 μM compound): 91.2% | inhibition at 10 µM (10 μM compound): 93.3%

CCCCCC1Cc2c(n(Cc3cccc(C(N)=O)c3)c3c(C(=O)O)cccc23)C1 (stereo not drawn) [4-[(3-carbamoylphenyl)methyl]-2-pentyl-1H,2H,3H,4H-cyclopenta[b]indole-5-carboxylic acid]
inhibition at 1 µM (1 μM compound): 86.9% | inhibition at 10 µM (10 μM compound): 93.1%

CCCCCCC1CCCc2c(n(Cc3ccc(C#N)o3)c3c(C(=O)O)cccc23)C1 (stereo not drawn) [5-[(5-cyanofuran-2-yl)methyl]-7-hexyl-5H,6H,7H,8H,9H,10H-cyclohepta[b]indole-4-carboxylic acid]
inhibition at 1 µM (1 μM compound): 81.3% | inhibition at 10 µM (10 μM compound): 90%

CCCCCCC1CCc2c(n(Cc3cccc(O)c3)c3c(C(=O)O)cccc23)C1 (stereo not drawn) [2-hexyl-9-[(3-hydroxyphenyl)methyl]-2,3,4,9-tetrahydro-1H-carbazole-8-carboxylic acid]
inhibition at 1 µM (1 μM compound): 77.9% | inhibition at 10 µM (10 μM compound): 93.1%

CCCCCCC1CCCc2c(n(Cc3cccc4ncoc34)c3c(C(=O)O)cccc23)C1 (stereo not drawn) [5-[(1,3-benzoxazol-7-yl)methyl]-7-hexyl-5H,6H,7H,8H,9H,10H-cyclohepta[b]indole-4-carboxylic acid]
inhibition at 1 µM (1 μM compound): 92% | inhibition at 10 µM (10 μM compound): 95.3%
